Reference: ChEMBL document CHEMBL1201862, “PubChem BioAssay data set” (2004)
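1) Cells in 96-well plates. 2) Compound, 48 h, 5 concentrations. 3) Linear interpolation between surrounding doses. 4) Unreached endpoint = highest concentration. GI50 = concentration required for 50% inhibition of growth.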 Activity calls are given as the source filed them. Cut-off read from the data, not from the text of the source: active = GI50 up to about 1.1 µM and inactive = higher.

Key:
Assay in all cases: inhibition of tumour cell growth, NCI panel, 48 h
[1] = test system: KM12
[2] = test system: SW-620
[3] = test system: CCRF-CEM
[4] = test system: OVCAR-4
[5] = test system: BT-549
[6] = test system: CAKI-1
[7] = test system: DU-145
[8] = test system: NCI-H226
[9] = test system: MDA-MB-435
[10] = test system: NCI-H23
[11] = test system: RXF 393
[12] = test system: UACC-257
[13] = test system: MDA-N
[14] = test system: UO-31
[15] = test system: LOX IMVI
[16] = test system: RPMI-8226
[17] = test system: NCI-H460
[18] = test system: SF-539
[19] = test system: UACC-62
[20] = test system: SK-OV-3
[21] = test system: SK-MEL-28
[22] = test system: U-251
[23] = test system: NCI/ADR-RES
[24] = test system: K562
[25] = test system: T47D
[26] = test system: OVCAR-8
[27] = test system: HCT-15
[28] = test system: HL-60
[29] = test system: SNB-75
[30] = test system: IGROV-1
[31] = test system: TK-10
[32] = test system: MOLT-4
[33] = test system: SK-MEL-5
[34] = test system: HCT-116
[35] = test system: 786-0
[36] = test system: A549
[37] = test system: PC-3
[38] = test system: HOP-62
[39] = test system: SR
[40] = test system: SNB-19
[41] = test system: M14
[42] = test system: Malme-3M
[43] = test system: A498
[44] = test system: COLO 205
[45] = test system: OVCAR-3
[46] = test system: SN12C
[47] = test system: SF-268
[48] = test system: SK-MEL-2
[49] = test system: Hs-578T
[50] = test system: HT-29
[51] = test system: MCF7
[52] = test system: MDA-MB-231
[53] = test system: EKVX
[54] = test system: SF-295
[55] = test system: OVCAR-5
[56] = test system: HOP-92
[57] = test system: ACHN

Measured: GI50

COC(=O)c1c(O)ccc2c1c1c(n2Cc2ccccc2OC)C(=O)c2ccccc2C1
inactive: [1] 93.5 µM | [2] 81.1 µM | [3] 24.6 µM | [4] 29.7 µM | [5] > 100 µM | [6] 65.3 µM | [7] > 100 µM | [8] 70.3 µM | [9] 45.3 µM | [10] 74.8 µM | [11] 26.5 µM | [12] 34.7 µM | [13] 77.1 µM | [14] 44.5 µM | [15] 47.2 µM | [16] 22.4 µM | [17] 29 µM | [18] 63.8 µM | [19] 76.4 µM | [20] 78.5 µM | [21] > 100 µM | [22] 63.4 µM | [23] 29.3 µM | [24] 70.5 µM | [25] 81.3 µM | [26] 91.2 µM | [28] > 100 µM | [29] 61.9 µM | [30] 63.1 µM | [31] > 100 µM | [32] 48.3 µM | [33] 55.6 µM | [34] 27.8 µM | [35] 78.9 µM | [36] 49.1 µM | [37] 24 µM | [38] 75.5 µM | [39] 77.3 µM | [40] > 100 µM | [41] 46.2 µM | [42] > 100 µM | [43] > 100 µM | [44] 15.5 µM | [45] 88.7 µM | [46] 22.8 µM | [47] 40.5 µM | [48] 87.5 µM | [49] > 100 µM | [50] 36.5 µM | [51] 23.7 µM | [52] 44.1 µM
63.4 µM: [27]

O=c1n(N=[S+]([O-])(c2ccccc2)c2ccccc2)c(=O)n2n1C1C=CC2CC1
> 100 µM: [27]
inactive: [1] > 100 µM | [2] > 100 µM | [3] > 100 µM | [5] > 100 µM | [6] > 100 µM | [7] > 100 µM | [8] > 100 µM | [53] > 100 µM | [9] > 100 µM | [54] > 100 µM | [10] > 100 µM | [12] > 100 µM | [13] > 100 µM | [14] > 100 µM | [15] > 100 µM | [16] > 100 µM | [17] > 100 µM | [18] > 100 µM | [19] > 100 µM | [20] > 100 µM | [55] > 100 µM | [21] > 100 µM | [22] > 100 µM | [23] > 100 µM | [24] > 100 µM | [25] > 100 µM | [26] > 100 µM | [28] > 100 µM | [29] > 100 µM | [30] > 100 µM | [31] > 100 µM | [32] > 100 µM | [33] > 100 µM | [34] > 100 µM | [56] > 100 µM | [35] > 100 µM | [36] > 100 µM | [37] > 100 µM | [38] > 100 µM | [57] > 100 µM | [39] > 100 µM | [40] > 100 µM | [41] > 100 µM | [43] > 100 µM | [44] > 100 µM | [45] > 100 µM | [46] > 100 µM | [47] > 100 µM | [48] > 100 µM | [49] > 100 µM | [50] > 100 µM | [51] > 100 µM | [52] > 100 µM
